Literature values in patent US7196076B2, “Androgen receptor modulators and methods of use thereof” (Merck & Co., Inc., priority 2001, dated 2007).
Structures can show the parent of a compound that is named as a salt.

Columns and labels:
[1] = median of 22 months of treatment
[2] = after 7 years of treatment

Q: Which “reduction in nonvertebral fractures” value [1] does the source give for “hPTH(1–34): human parathyroid hormone 1–34 fragment (SVSEIQLMHNLGKHLNSMERVEWLRKKLQDVHNF; Parathyroid hormone; UniProt P01270 32-65, looked up, fragment)” here?
A: 54%

Q: And the “reduction in spine fractures” value [1]?
A: ≥ 65%

Q: With `NCCCC(O)(P(=O)(O)O)P(=O)(O)O` [alendronate, 4-amino-1-hydroxybutylidene-1,1-bisphosphonic acid monosodium salt, trihydrate] as the molecule, how does the “increase in spinal BMD” value [2] read?
A: 11%
